These results are taken from PMC11329504, “Identification of novel small molecule-based strategies of COL7A1 upregulation and readthrough activity for the treatment of recessive dystrophic epidermolysis bullosa” (Scientific Reports, 2024).

The target in one series is JAK2 (Homo sapiens, UniProt O60674). As to the kind of experiment: Enzymatic JAK2 kinase activity. Format: biochemical. The note with it: dose-response curves; read-out: IC50 ± SD, JAK2. As to the method:
Enzymatic Syk kinase activity assays were performed as previously described. Enzymatic activity of JAK1, JAK2, JAK3, and Tyk kinases was evaluated as previously described.

For the next series, the target named is T1, SAPK2α (Homo sapiens, UniProt Q16539).
T1 construct: Eurofins Pharma Discovery Services
T1 sequence (Q16539 whole entry): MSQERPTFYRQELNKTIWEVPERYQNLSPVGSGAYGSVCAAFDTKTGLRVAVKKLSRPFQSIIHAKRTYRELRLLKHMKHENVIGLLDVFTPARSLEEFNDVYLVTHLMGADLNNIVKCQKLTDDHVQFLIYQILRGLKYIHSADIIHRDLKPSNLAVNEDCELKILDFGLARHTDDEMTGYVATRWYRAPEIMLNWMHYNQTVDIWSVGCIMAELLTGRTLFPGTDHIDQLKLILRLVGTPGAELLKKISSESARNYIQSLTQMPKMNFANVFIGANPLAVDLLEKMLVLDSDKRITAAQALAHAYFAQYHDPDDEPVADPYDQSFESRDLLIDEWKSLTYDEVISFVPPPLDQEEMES
As to the kind of experiment: Selectivity panel (Eurofins): p38/SAPK2α kinase. The format is biochemical.

Series [1] is described as follows: Cytotoxicity, ATP levels (ATPlite), RDEB_L1 cells. The format is cell-based. Conditions: human, RDEB L1 cells (RDEB patient-derived cell line). Here is the method: The viability of RDEB patient-derived cell lines or NHK was evaluated by measuring the ATP levels as an indirect readout of the potential cytotoxicity effect of compounds. Cells were plated and treated exactly with the same conditions as those followed in the AlphaLISA assay, described above. To measure ATP levels, cells were processed using the ATPlite™ 1step luminescence-based assay (PerkinElmer 6,016,731), following the manufacturer’s protocol. 25 μL of ATPlite™ reagent was added directly over cells and plates were covered with a sealing film and shaken for 25 min using a microtiter plate shaker. Luminescence was measured in a Luminoskan Ascent luminometer (Thermo Fisher Scientific). 10 μM of Staurosporine was used as a reference compound and control for the total cytotoxicity.
On the technique in general: Cellular ATP, detected with luciferase, serves as a proxy for viable cell number.

The next series relates to NHK cells. As to the kind of experiment: Cytotoxicity, ATP levels, normal human keratinocytes (NHK). Conditions: NHK cells, ATP levels, at 100 µM. The format is cell-based. Put shortly: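 RDEB patient-derived cells, CHO cells or normal human keratinocytes were plated and treated as in the AlphaLISA assay. Viability was read as ATP by ATPlite 1step luminescence; 10 μM staurosporine served as the total-cytotoxicity control.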

Molecules are shown by their SMILES. Some results are limits rather than exact numbers.

Sequence of JAK2 (O60674 whole entry, species assumed): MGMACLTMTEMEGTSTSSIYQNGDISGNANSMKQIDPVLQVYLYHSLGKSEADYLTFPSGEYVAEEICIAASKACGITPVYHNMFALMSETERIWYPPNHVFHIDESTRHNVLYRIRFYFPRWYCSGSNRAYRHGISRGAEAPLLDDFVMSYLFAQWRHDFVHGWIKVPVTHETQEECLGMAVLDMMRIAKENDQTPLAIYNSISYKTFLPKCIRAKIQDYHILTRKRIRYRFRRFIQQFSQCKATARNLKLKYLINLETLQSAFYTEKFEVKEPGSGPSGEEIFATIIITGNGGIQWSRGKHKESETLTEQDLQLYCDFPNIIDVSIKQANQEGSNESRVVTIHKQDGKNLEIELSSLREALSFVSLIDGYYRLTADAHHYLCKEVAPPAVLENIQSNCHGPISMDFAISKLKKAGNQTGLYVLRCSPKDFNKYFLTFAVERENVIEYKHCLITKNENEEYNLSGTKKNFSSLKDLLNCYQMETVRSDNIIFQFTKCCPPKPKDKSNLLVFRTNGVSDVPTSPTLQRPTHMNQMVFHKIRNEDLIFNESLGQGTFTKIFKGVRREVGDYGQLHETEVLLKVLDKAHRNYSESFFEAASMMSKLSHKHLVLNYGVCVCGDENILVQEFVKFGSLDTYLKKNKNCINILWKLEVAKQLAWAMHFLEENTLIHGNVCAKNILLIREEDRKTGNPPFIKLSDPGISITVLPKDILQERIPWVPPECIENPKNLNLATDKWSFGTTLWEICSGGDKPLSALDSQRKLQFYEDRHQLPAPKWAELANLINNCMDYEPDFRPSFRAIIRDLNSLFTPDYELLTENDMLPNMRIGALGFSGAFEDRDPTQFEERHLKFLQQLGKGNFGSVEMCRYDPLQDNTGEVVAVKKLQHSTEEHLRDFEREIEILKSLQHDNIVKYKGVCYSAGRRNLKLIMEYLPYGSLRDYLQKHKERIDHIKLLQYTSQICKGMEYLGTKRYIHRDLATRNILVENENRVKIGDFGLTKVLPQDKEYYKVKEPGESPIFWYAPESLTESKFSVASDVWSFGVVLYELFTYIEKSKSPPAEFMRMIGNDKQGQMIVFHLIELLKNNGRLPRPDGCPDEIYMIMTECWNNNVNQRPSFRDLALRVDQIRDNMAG

What is called IC50 is the concentration that gives 50% inhibition. Take `NC(=O)Cn1ccc2ccc(-c3cnc(N)c(C(=O)NC4C5CC6CC4CC(O)(C6)C5)n3)cc21` (stereo not shown) [Compound 1]: at JAK2, the IC50 is 120 ± 60 nM.
Usually inhibition stands for the relative decrease from the control value, in per cent. As for `C#Cc1cc(-c2ccncc2)c(-c2cccc(F)c2)nc1N` [Compound 7], the inhibition at 3 µM at SAPK2α (at 3 μM, n = 1, duplicate, read-out: % inhibition, SAPK2α) came out at 90%. Moreover, the inhibition at 10 µM on SAPK2α (at 10 μM, n = 1, duplicate, read-out: % inhibition, SAPK2α) was determined as 103%. Also, the inhibition at 30 µM on SAPK2α (at 30 μM, n = 1, duplicate, read-out: % inhibition, SAPK2α) was 107%. Further, the “antagonism/inhibition of p38/SAPK2α kinase” value at SAPK2α (at concentrations of 3 and 10 µM) is at least 50%. In series [1], the IC50 is above 100000 nM. In addition, in the series on NHK cells, the “Cytotox. % inhibition of viability” value is given as 19% ± 11 at 100 (n=4).
